Test results reported in US20090018116A1, “Therapeutic Compounds” (ASTRAZENECA AB, priority 2004, published 2009).
pEC50, pKi: −log10 of the molar value.

What was measured:
Human CB1 receptor [1] = molecular target: T1, Human CB1 receptor (Homo sapiens, UniProt P21554); test: hCB1 GTPγS binding; type: biochemical; details: hCB1 membranes, GTPg35S binding; for Emax: maximal stimulation with 10 μM Win 55,212-2
T1 construct: purchased Receptor Biology
Procedure: Human CB1 receptor from Receptor Biology (hCB1) or human CB2 receptor membranes (BioSignal) are thawed at 37° C., passed 3 times through a 25-gauge blunt-end needle and diluted in the GTPγS binding buffer (50 mM Hepes, 20 mM NaOH, 100 mM NaCl, 1 mM EDTA, 5 mM MgCl2, pH 7.4, 0.1% BSA). […] The basal and maximal stimulated binding is determined in absence and presence of 1 μM (hCB2) or 10 μM (hCB1) Win 55,212-2 respectively. The membranes are pre-incubated for 5 minutes with 56.25 μM (hCB2) or 112.5 μM (hCB1) GDP prior to distribution in plates (15 μM (hCB2) or 30 μM (hCB1) GDP final). The plates are vortexed and incubated for 60 minutes at room temperature, filtered on Unifilters GF/B (presoaked in water) with the Tomtec or Packard harvester using 3 ml of wash buffer (50 mM Tris, 5 mM MgCl2, 50 mM NaCl, pH 7.0). The filters are dried for 1 hour at 55° C. The radioactivity (cpm) is counted in a TopCount (Packard) after adding 65 μl/well of MS-20 scintillation liquid. Antagonist reversal studies are done in the same way except that (a) an agonist dose-response curve is done in the presence of a constant concentration of antagonist, or (b) an antagonist dose-response curve is done in the presence of a constant concentration of agonist.

Human CB1 receptor [2] = molecular target: T1, Human CB1 receptor; test: hCB1 receptor binding (3H-CP55,940 displacement); details: hCB1 membranes, Ki=IC50/(1+[rad]/Kd)
Procedure: The total and non-specific binding are determined in the absence and presence of 0.2 μM of HU210 respectively. The plates are vortexed and incubated for 60 minutes at room temperature, filtered through Unifilters GF/B (presoaked in 0.1% polyethyleneimine) with the Tomtec or Packard harvester using 3 mL of wash buffer (50 mM Tris, 5 mM MgCl2, 0.5 mg BSA pH 7.0). The filters are dried for 1 hour at 55° C. The radioactivity (cpm) is counted in a TopCount (Packard) after adding 65 μl/well of MS-20 scintillation liquid.
Based on the above assays, the dissociation constant (Ki) for a particular compound of the invention towards a particular receptor is determined using the following equation:
[rad] is a standard or reference radioactive ligand concentration at that moment; and
Kd is the dissociation constant of the radioactive ligand towards the particular receptor.

T1 sequence (P21554 whole entry): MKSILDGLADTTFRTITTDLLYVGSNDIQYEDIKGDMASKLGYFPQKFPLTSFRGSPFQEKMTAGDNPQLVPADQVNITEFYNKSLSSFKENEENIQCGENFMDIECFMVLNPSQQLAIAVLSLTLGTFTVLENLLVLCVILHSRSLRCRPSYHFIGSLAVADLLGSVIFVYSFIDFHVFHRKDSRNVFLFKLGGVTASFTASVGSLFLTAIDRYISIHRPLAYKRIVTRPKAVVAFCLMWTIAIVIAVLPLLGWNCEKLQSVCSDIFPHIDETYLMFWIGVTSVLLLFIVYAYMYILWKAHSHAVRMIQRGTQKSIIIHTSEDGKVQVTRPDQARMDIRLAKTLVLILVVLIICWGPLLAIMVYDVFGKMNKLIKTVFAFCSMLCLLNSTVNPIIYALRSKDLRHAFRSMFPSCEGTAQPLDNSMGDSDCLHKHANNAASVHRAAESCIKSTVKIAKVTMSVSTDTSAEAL

Compound | pEC50 (Human CB1 receptor [1]) | Emax (Human CB1 receptor [1]) [%] | pKi (Human CB1 receptor [2])
O=C(NCC1CCC1)c1cc(Cl)ccc1NC(=O)c1cccc2ccccc12 [Example 17, N-[4-Chloro-2-[[(cyclobutylmethyl)amino]carbonyl]phenyl]-1-naphthalenecarboxamide] | 7.39 | 95 | 8.14
O=C(NC1CCOCC1)c1cc(Cl)ccc1NC(=O)c1cccc2ccccc12 [Example 30, N-[4-Chloro-2-[[(tetrahydro-2H-pyran-4-yl)amino]carbonyl]phenyl]-1-naphthalenecarboxamide] | 6.52 | 109 | 7.15
O=C(NCC1CCCCC1)c1c(O)cccc1NC(=O)c1cccc2ccccc12 [Example 49, N-[2-[[(Cyclohexylmethyl)amino]carbonyl]-3-hydroxyphenyl]-1-naphthalenecarboxamide] |  | 109 | 
